# pKi: −log10 of the molar value.
# Key:
# Procathepsin L = Procathepsin L (Homo sapiens, UniProt P07711); assay: Binding affinity to human Cathepsin L assessed as inhibition constant; conditions: for Ki: read-out: pKi (converted)
# Cathepsin B = Cathepsin B (Homo sapiens, UniProt P07858); assay: Binding affinity to human Cathepsin B assessed as inhibition constant
# Cathepsin K = molecular target: T1, Cathepsin K (Homo sapiens, UniProt P43235); assay: Binding affinity to human Cathepsin K assessed as inhibition constant
# T1 sequence (P43235 whole entry): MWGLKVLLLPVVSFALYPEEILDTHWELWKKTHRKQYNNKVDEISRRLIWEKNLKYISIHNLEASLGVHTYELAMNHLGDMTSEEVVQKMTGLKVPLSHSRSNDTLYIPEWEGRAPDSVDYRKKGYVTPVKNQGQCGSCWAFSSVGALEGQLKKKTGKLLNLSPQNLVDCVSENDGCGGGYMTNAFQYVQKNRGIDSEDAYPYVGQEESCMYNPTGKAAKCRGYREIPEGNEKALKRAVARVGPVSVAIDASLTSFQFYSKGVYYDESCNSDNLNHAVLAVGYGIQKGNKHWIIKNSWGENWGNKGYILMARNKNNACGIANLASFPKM
# Cathepsin S = Cathepsin S (Homo sapiens, UniProt P25774); assay: Binding affinity to human Cathepsin S assessed as inhibition constant
# Cathepsin S, sequence (P25774 whole entry): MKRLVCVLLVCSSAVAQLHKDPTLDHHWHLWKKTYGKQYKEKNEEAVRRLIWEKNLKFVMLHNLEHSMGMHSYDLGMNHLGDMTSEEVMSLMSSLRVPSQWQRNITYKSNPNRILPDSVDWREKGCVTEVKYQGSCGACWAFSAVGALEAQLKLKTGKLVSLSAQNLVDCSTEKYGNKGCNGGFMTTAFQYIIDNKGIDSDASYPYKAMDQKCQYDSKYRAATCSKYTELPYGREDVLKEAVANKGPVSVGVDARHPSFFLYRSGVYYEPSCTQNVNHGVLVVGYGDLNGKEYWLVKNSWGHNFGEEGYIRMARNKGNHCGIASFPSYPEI
# Procathepsin L, sequence (P07711 whole entry): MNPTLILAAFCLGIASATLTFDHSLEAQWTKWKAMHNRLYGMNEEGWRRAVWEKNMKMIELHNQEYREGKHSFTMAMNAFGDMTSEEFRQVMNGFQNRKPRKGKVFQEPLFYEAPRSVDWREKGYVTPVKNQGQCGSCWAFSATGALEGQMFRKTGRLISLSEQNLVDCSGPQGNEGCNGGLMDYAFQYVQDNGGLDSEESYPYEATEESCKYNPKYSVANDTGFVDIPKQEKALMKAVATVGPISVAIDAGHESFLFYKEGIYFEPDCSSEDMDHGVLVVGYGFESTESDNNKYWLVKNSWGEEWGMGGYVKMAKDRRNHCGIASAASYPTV
Ki (Procathepsin L),pKi (Cathepsin B),pKi (Procathepsin L; read-out: Ki),pKi (Cathepsin K; read-out: Ki),pKi (Cathepsin S),Ki (Cathepsin K; read-out: pKi (converted)),Structure (SMILES)
> 100 µM,< 4.00,,,,,C[C@H]1C[C@@H](C(=O)NC2(C#N)CC2)N(C(=O)c2ccccc2)C1
> 100 µM,< 4.00,,,,,C[C@H]1C[C@@H](C(=O)NC2(C#N)CC2)N(C(=O)Cc2ccccc2)C1
> 100 µM,< 4.00,,,,,C[C@H]1C[C@@H](C(=O)NC2(C#N)CC2)N(C(=O)c2cc(C(F)(F)F)nn2C)C1
> 100 µM,< 4.00,,,,,C[C@H]1C[C@@H](C(=O)NC2(C#N)CC2)N(S(=O)(=O)c2cc(C(F)(F)F)nn2C)C1
0.00158 µM,< 4.00,~8.10,~8.10,7.10,,CC(C)C[C@H](NC(=O)c1cc(C(C)(C)C)nn1C)C(=O)NC1(C#N)CC1
> 100 µM,< 4.00,,,,,C[C@H]1C[C@@H](C(=O)NC2(C#N)CC2)N(C(=O)OC(C)(C)C)C1
> 100 µM,< 4.00,,,,,C[C@H]1C[C@@H](C(=O)NC2(C#N)CC2)N(C(=O)c2cc(C(C)(C)C)nn2C)C1
,,,,,0.0002 µM,CC(C)(F)C[C@H](N[C@@H](c1ccc(-c2ccc(S(C)(=O)=O)cc2)cc1)C(F)(F)F)C(=O)NC1(C#N)CC1 [ODANACATIB]

# Source: ChEMBL document CHEMBL5584266, “Novel selective proline-based peptidomimetics for human cathepsin K inhibition” (Bioorg Med Chem Lett, 2024)
